Assay [1] deals with Staphylococcus aureus. Kind of assay: Antibacterial activity against TMP-resistant Staphylococcus aureus harboring DHFR F99Y mutant by CLSI microdilution method. The class given is functional. Background: In broth dilution the organism is exposed to a series of concentrations in liquid medium.
Assay [2] concerns Escherichia coli. Kind of assay: Antibacterial activity against Escherichia coli ATCC 35218 by CLSI microdilution method. The class given is functional.
For assay [3], the system named is Staphylococcus aureus. Kind of assay: Antibacterial activity against Staphylococcus aureus Smith ATCC 13709 in presence of 20% mouse serum by CLSI microdilution method. Type of assay: functional.
Assay [4] concerns Haemophilus influenzae. Kind of assay: Antibacterial activity against ampicillin-resistant Haemophilus influenzae ATCC 49247 by CLSI microdilution method. Type of assay: functional.
Assay [5] can be described thus: Inhibition of Haemophilus influenzae DHFR assessed as oxidation of NADPH using dihydrofolate as substrate pre-incubated for 10 mins before substrate addition by spectrophotometry.
In assay [6] the target is Dihydrofolate reductase (Staphylococcus aureus, UniProt P0A017, F99Y). Kind of assay: Inhibition of TMP-resistant Staphylococcus aureus DHFR F99Y mutant assessed as oxidation of NADPH using dihydrofolate as substrate pre-incubated for 10 mins before substrate addition by spectrophotometry.
The test system of assay [7] is Enterococcus faecalis. The assay can be described thus: Antibacterial activity against Enterococcus faecalis ATCC 29212 by CLSI microdilution method. Type of assay: functional.
The test system of assay [8] is Staphylococcus aureus. Kind of assay: Antibacterial activity against Staphylococcus aureus Smith ATCC 13709 by CLSI microdilution method. The class given is functional.
For assay [9], the target named is T1, Dihydrofolate reductase (Homo sapiens, UniProt P00374).
T1 sequence (P00374 whole entry): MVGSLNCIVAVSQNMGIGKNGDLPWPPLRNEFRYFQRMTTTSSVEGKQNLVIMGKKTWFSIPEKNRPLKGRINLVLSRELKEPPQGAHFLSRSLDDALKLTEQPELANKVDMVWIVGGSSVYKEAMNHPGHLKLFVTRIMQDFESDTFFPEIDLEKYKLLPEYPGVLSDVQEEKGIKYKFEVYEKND
The assay can be described thus: Inhibition of human DHFR assessed as oxidation of NADPH using dihydrofolate as substrate pre-incubated for 10 mins before substrate addition by spectrophotometry.

In assay [10] the target is Dihydrofolate reductase (Staphylococcus aureus, UniProt P0A017). The assay can be described thus: Inhibition of Staphylococcus aureus DHFR assessed as oxidation of NADPH using dihydrofolate as substrate pre-incubated for 10 mins before substrate addition by spectrophotometry.

≈ marks a conversion by molar mass, not a printed value.

From ChEMBL document CHEMBL1817628, “Structure-based design of new DHFR-based antibacterial agents: 7-aryl-2,4-diaminoquinazolines” (Bioorg Med Chem Lett, 2011) come the findings set out here.

A word on the Ki: it is a measure of affinity in units of concentration, obtained from inhibition or displacement.

Regarding `CCOc1ccc(C(=O)N(CC)CC)cc1-c1cc2nc(N)nc(N)c2cc1C`, the MIC worked out at 8 µg/mL (≈ 20.3 µM) in [1]; 64 µg/mL (≈ 163 µM) in [2]; 0.5 µg/mL in assay [3]; 64 µg/mL (≈ 163 µM) in assay [4]; 0.5 µg/mL (≈ 1.27 µM) in assay [7]; 0.5 µg/mL (≈ 1.27 µM) in assay [8]. The values for the Ki in assay [5] and in assay [6] were 0.013 nM and 6 nM, respectively.
For the compound `COc1ccc(-c2cc3nc(N)nc(N)c3cc2C)cc1OC`, the MIC in [2] came out at 8 µg/mL (≈ 25.8 µM); in assay [3], 0.5 µg/mL; in [4] it was 4 µg/mL (≈ 12.9 µM); in assay [7], 0.5 µg/mL (≈ 1.61 µM); in assay [8], 0.5 µg/mL (≈ 1.61 µM). The inhibition constant Ki came out at 12.2 nM in assay [9], 0.35 nM in assay [10] and 0.0018 nM in assay [5].
`CCOc1ccc(-c2cccnc2)cc1-c1ccc2c(N)nc(N)nc2c1`: the MIC was greater than 16 µg/mL in [2]; 8 µg/mL in assay [3]; 16 µg/mL (≈ 44.8 µM) in assay [4]; 0.5 µg/mL (≈ 1.4 µM) in assay [7]; 0.5 µg/mL (≈ 1.4 µM) in [8]. In addition, the Ki was found to be 10.1 nM in assay [9], 0.3 nM in assay [10] and 0.011 nM in [5].
On to `CS(=O)(=O)c1ccc(-c2ccc3c(N)nc(N)nc3c2)cc1`, for which the MIC in [2] is greater than 64 µg/mL; in assay [3] it was 8 µg/mL; in assay [4] it was 16 µg/mL (≈ 50.9 µM); in [7] it was 16 µg/mL (≈ 50.9 µM); in [8], 8 µg/mL (≈ 25.4 µM). Moreover, the Ki was 253 nM in assay [9], 5 nM in assay [10] and 0.22 nM in assay [5].
For the compound `Cc1cc2c(N)nc(N)nc2cc1-c1ccccc1`, the MIC amounted to 8 µg/mL (≈ 32 µM) in assay [2]; 2 µg/mL in assay [3]; 2 µg/mL (≈ 7.99 µM) in assay [4]; 0.5 µg/mL (≈ 2 µM) in assay [7]; 1 µg/mL (≈ 4 µM) in assay [8]. For the same compound, the Ki in assay [9] was 129 nM; in [10] it was 1.6 nM; in assay [5], 0.0073 nM.
With `Cc1cc2c(N)nc(N)nc2cc1-c1ccc(S(C)(=O)=O)cc1`, the MIC in [2] stood at 32 µg/mL (≈ 97.4 µM); in assay [3] it was 1 µg/mL; in [4], 8 µg/mL (≈ 24.4 µM); in assay [7] it was 1 µg/mL (≈ 3.05 µM); in assay [8], 2 µg/mL (≈ 6.09 µM). The Ki was 44.1 nM in assay [9], 1.2 nM in assay [10] and 0.0023 nM in [5].
For `CC(=O)c1cccc(-c2cc3nc(N)nc(N)c3cc2C)c1`, the MIC in assay [2] was 4 µg/mL (≈ 13.7 µM); in [3], 1 µg/mL; in assay [4], 1 µg/mL (≈ 3.42 µM); in assay [7], 0.5 µg/mL (≈ 1.71 µM); in assay [8], 0.5 µg/mL (≈ 1.71 µM). For the same compound, the Ki in [5] amounted to 0.006 nM.
In the case of `COc1ccccc1-c1ccc2c(N)nc(N)nc2c1`, the MIC in [2] was 32 µg/mL (≈ 120 µM); in [3] it was 4 µg/mL; in assay [4] it was 16 µg/mL (≈ 60.1 µM); in assay [7], 4 µg/mL (≈ 15 µM); in [8] it was 2 µg/mL (≈ 7.51 µM). The Ki in assay [5] came to 0.21 nM.
Regarding `CCc1ccccc1-c1cc2nc(N)nc(N)c2cc1C`, the MIC came to 8 µg/mL (≈ 28.7 µM) in assay [2]; 0.5 µg/mL in assay [3]; 8 µg/mL (≈ 28.7 µM) in [4]; 0.25 µg/mL (≈ 0.898 µM) in [7]; 0.25 µg/mL (≈ 0.898 µM) in [8]. Besides, the figures for the inhibition constant (Ki) in assay [9], in assay [10] and in [5] were 41.1 nM, 0.19 nM and 0.032 nM, respectively.
`Cc1cc2c(N)nc(N)nc2cc1-c1ccccc1C(C)C`: the MIC in [2] is 16 µg/mL (≈ 54.7 µM); in assay [3], 1 µg/mL; in assay [4], 8 µg/mL (≈ 27.4 µM); in [7], 0.5 µg/mL (≈ 1.71 µM); in assay [8], 0.25 µg/mL (≈ 0.855 µM). Moreover, the Ki in assay [9] stood at 20.9 nM; in [10] it was 0.13 nM; in [5] it was 0.037 nM.
As to `CCOc1ccc(Br)cc1-c1cc2nc(N)nc(N)c2cc1C`, the MIC in [2] stood at 32 µg/mL (≈ 85.7 µM); in assay [3], 8 µg/mL; in assay [4] it was 32 µg/mL (≈ 85.7 µM); in [7], 0.5 µg/mL (≈ 1.34 µM); in assay [8] it was 1 µg/mL (≈ 2.68 µM). Besides, the Ki turned out to be 11.1 nM in [9], 0.76 nM in assay [10] and 0.044 nM in assay [5].
`CCOc1ccc(C=O)cc1-c1cc2nc(N)nc(N)c2cc1C`: the MIC in assay [2] is 16 µg/mL (≈ 49.6 µM); in [3] it was 1 µg/mL; in assay [4], 2 µg/mL (≈ 6.2 µM); in assay [7], 0.5 µg/mL (≈ 1.55 µM); in assay [8], 1 µg/mL (≈ 3.1 µM). Moreover, the Ki in [9] is 12 nM; in assay [10], 0.24 nM; in assay [5], 0.22 nM.
For `CCOc1ccccc1-c1ccc2c(N)nc(N)nc2c1`, the MIC in [2] is 32 µg/mL (≈ 114 µM); in assay [3], 8 µg/mL; in [4] it was 16 µg/mL (≈ 57.1 µM); in assay [7] it was 4 µg/mL (≈ 14.3 µM); in [8], 4 µg/mL (≈ 14.3 µM). For the same compound, the Ki in [9] is 85 nM; in assay [10] it was 3.1 nM; in [5], 0.27 nM.
